This is an account of results in ChEMBL document CHEMBL5729501, “Isoindolines as HDAC inhibitors” (2022).

Usually IC50 stands for the concentration at which inhibition is half-maximal.

For the assay, the target named is T1, Histone deacetylase 11 (Homo sapiens, UniProt Q96DB2).
T1 sequence (Q96DB2 whole entry): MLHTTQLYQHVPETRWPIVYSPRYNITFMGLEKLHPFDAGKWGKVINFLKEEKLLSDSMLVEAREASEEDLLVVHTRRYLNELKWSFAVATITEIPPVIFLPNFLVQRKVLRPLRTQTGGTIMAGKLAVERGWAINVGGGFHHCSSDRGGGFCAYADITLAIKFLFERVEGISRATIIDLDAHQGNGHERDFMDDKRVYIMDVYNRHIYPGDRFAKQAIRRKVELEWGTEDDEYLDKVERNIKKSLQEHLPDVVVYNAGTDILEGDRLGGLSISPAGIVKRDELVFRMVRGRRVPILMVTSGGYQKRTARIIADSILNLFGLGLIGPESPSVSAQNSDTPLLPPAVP
The experiment in a line: In Vitro Histone Deacetylase Assay II: The measurement of HD AC 11 deacetylase activity was performed using an electrophoretic mobility shift assay by Nanosyn (Santa Clara, Calif.). Full length human recombinant HD AC 11 protein was expressed in baculoviral system and purified by affinity chromatography. The enzymatic reactions were assembled in 384 well plates in a total volume of 25 μL in a reaction buffer composing: 100 mM HEPES, pH 7.5, 25 mM KCl, 0.1% bovine serum albumin, 0.01% Triton X-100, 1% DMSO (from compounds), 2 μM of the fluorescently labeled peptide substrate and enzyme. The enzyme was added at a final concentration of 10 nM. The peptide substrate FAM-RHKK(tri-fluor-Ac)—NH2 was used. The compounds were tested at 12 concentrations spaced by 3× dilution intervals. Negative control samples (0%-inhibition in the absence of inhibitor) and positive control samples (100%-inhibition) were assembled in replicates of four in each assay plate. The reactions were incubated at 25° C. and quenched by the addition of 45 μL of termination buffer (100 mM HEPES, pH 7.5, 0.01% Triton X-100, 0.05% SDS).The terminated assay plates were analyzed on LabChip® 3000 microfluidic electrophoresis instrument (Perkin Elmer/Caliper Life Sciences). The fluorescence intensity of the electrophoretically separated de-acetylated product and substrate peptide was measured. […].

For `O=C(NO)c1cccc2c1CN(c1nc3ccccc3[nH]1)C2`, the half-inhibitory concentration (IC50) was below 500 nM.
